Peptide text beside a SMILES is read from it.
Tests used:
Format in all cases: cell-based
[1] = test system: Pseudomonas syringae pv. syringae EPS94; experiment: Antibacterial activity (MIC), in vitro growth inhibition; conditions: Table S1, MIC range
Method: (§1) Erwinia amylovora PMV6076 (Institut National de la Recherche Agronomique, Angers, France), Pseudomonas syringae pv. syringae EPS94 (Institut de Tecnologia Agroalimentària, Universitat de Girona, Spain), and Xanthomonas axonopodis pv. vesicatoria 2133-2 (Instituto Valenciano de Investigaciones Agrarias, Valencia, Spain) were used as bacterial strains. They were stored and cultivated as previously described.
(§2) The minimum inhibitory concentration (MIC) was analyzed as previously described at 0.8, 1.6, 3.1, 6.2, 12.5, 25 and 50 μM [20].

[2] = test system: Xanthomonas axonopodis pv. vesicatoria 2133-2; conditions: Table S1, MIC range
Method: as §1, §2

[3] = test system: erythrocyte suspensions of human blood; experiment: Hemolytic activity, hemoglobin release; conditions: human blood erythrocytes 5% v/v, absorbance 540 nm, percentage compared to melittin, three replicates; for Hemolysis (%) at 50 µM: peptide 50 μM (table prints 50 µM); for Hemolysis (%) at 125 µM: peptide 125 μM (table prints 125 µM)
Method: The hemolytic activity of the compounds was evaluated at 50 and 125 μM by determining hemoglobin release from erythrocyte suspensions of human blood (5% v/v) (Oxoid) using absorbance at 540 nm, as previously described. Three replicates for each peptide concentration were used.

Row | SMILES | MIC Pss [1] [µM] | MIC Xav [2] [µM] | Hemolysis (%) at 50 µM [3] [%] | Hemolysis (%) at 125 µM [3] [%]
1 | CC(C)C[C@@H]1NC(=O)[C@H](CCCCN)NC(=O)[C@H](CCC(N)=O)NC(=O)[C@H](CCCCN)NC(=O)[C@H](CCCCN)NC(=O)[C@H](CCCCN)NC(=O)[C@H](Cc2c[nH]c3ccccc23)NC(=O)[C@H](CC(C)C)NC(=O)[C@H](CC(C)C)NC(=O)[C@H](CCCCN)NC1=O [BPC150W, c(KLKLLWKKKQ)] (cyclo(KKKQKLKLLW)) | 12.5 to 25 | 6.2 to 12.5 | 17 | 32
2 | CC(C)C[C@@H]1NC(=O)[C@H](CCC(N)=O)NC(=O)[C@H](CCCCN)NC(=O)[C@H](CCCCN)NC(=O)[C@H](CCCCN)NC(=O)[C@H](Cc2c[nH]c3ccccc23)NC(=O)[C@H](CC(C)C)NC(=O)[C@H](CC(C)C)NC(=O)[C@H](CCCCN)NC(=O)[C@H](CCCCN)NC1=O [BPC152W, c(LKKLLWKKKQ)] (cyclo(KKKQLKKLLW)) | 6.2 to 12.5 | 6.2 to 12.5 | 1 | 3
3 | CC(C)C[C@@H]1NC(=O)[C@H](CCC(N)=O)NC(=O)[C@H](CC(C)C)NC(=O)[C@H](CCCCN)NC(=O)[C@H](CCCCN)NC(=O)[C@H](Cc2c[nH]c3ccccc23)NC(=O)[C@H](CCCCN)NC(=O)[C@H](CC(C)C)NC(=O)[C@H](CCCCN)NC(=O)[C@H](CCCCN)NC1=O [BPC092W, c(LKKLKWKKLQ)] (cyclo(KKLKWKKLQL)) | 6.2 to 12.5 | 3.1 to 6.2 | 2 | 3
4 | CC(C)C[C@@H]1NC(=O)[C@H](CCCCN)NC(=O)[C@H](Cc2c[nH]c3ccccc23)NC(=O)[C@H](CC(C)C)NC(=O)[C@H](CCCCN)NC(=O)[C@H](CC(C)C)NC(=O)[C@H](CCCCN)NC(=O)[C@H](CCCCN)NC(=O)[C@H](CCC(N)=O)NC(=O)[C@H](CCCCN)NC1=O [BPC112W, c(KKLKLWKLKQ)] (cyclo(KKLKLWKLKQ)) | 3.1 to 6.2 | 6.2 to 12.5 | 3 | 4
5 | CC(C)C[C@@H]1NC(=O)[C@H](CCC(N)=O)NC(=O)[C@H](CC(C)C)NC(=O)[C@H](CCCCN)NC(=O)[C@H](CCCCN)NC(=O)[C@H](Cc2c[nH]c3ccccc23)NC(=O)[C@H](CCCCN)NC(=O)[C@H](CCCCN)NC(=O)[C@H](CCCCN)NC(=O)[C@H](CCCCN)NC1=O [BPC190W, c(LKKKKWKKLQ)] (cyclo(KKKKWKKLQL)) | 25 to 50 | 12.5 to 25 | 1 | 3
6 | CC(C)C[C@@H]1NC(=O)[C@H](CCCCN)NC(=O)[C@H](CCCCN)NC(=O)[C@H](Cc2c[nH]c3ccccc23)NC(=O)[C@H](CCCCN)NC(=O)[C@H](CCCCN)NC(=O)[C@H](CC(C)C)NC(=O)[C@H](CC(C)C)NC(=O)[C@H](CC(C)C)NC(=O)[C@H](CCC(N)=O)NC1=O [BPC188W, c(LLLKKWKKLQ)] (cyclo(KKLQLLLKKW)) | 6.2 to 12.5 | 12.5 to 25 | 33 | 48
7 | CC(C)C[C@@H]1NC(=O)[C@H](CCC(N)=O)NC(=O)[C@H](CCCCN)NC(=O)[C@H](CCCCN)NC(=O)[C@H](CCCCN)NC(=O)[C@H](Cc2c[nH]c3ccccc23)NC(=O)[C@H](CC(C)C)NC(=O)[C@H](CCCCN)NC(=O)[C@H](CC(C)C)NC(=O)[C@H](CCCCN)NC1=O [BPC156W, c(LKLKLWKKKQ)] (cyclo(KKKQLKLKLW)) | 6.2 to 12.5 | 3.1 to 6.2 | 1 | 2
8 | CC(C)C[C@@H]1NC(=O)[C@H](CCCCN)NC(=O)[C@H](Cc2c[nH]c3ccccc23)NC(=O)[C@H](CCCCN)NC(=O)[C@H](CC(C)C)NC(=O)[C@H](CCCCN)NC(=O)[C@H](CC(C)C)NC(=O)[C@H](CCCCN)NC(=O)[C@H](CCC(N)=O)NC(=O)[C@H](CCCCN)NC1=O [BPC016W, c(KLKLKWKLKQ)] (cyclo(KLKLKWKLKQ)) | 12.5 to 25 | 3.1 to 6.2 | 25 | 32
9 | CC(C)C[C@@H]1NC(=O)[C@H](CCCCN)NC(=O)[C@H](CCCCN)NC(=O)[C@H](Cc2c[nH]c3ccccc23)NC(=O)[C@H](CCCCN)NC(=O)[C@H](CC(C)C)NC(=O)[C@H](CCCCN)NC(=O)[C@H](CCCCN)NC(=O)[C@H](CCCCN)NC(=O)[C@H](CCC(N)=O)NC1=O [BPC186W, c(KKKLKWKKLQ)] (cyclo(KKKLKWKKLQ)) | 12.5 to 25 | 6.2 to 12.5 | 1 | 1
10 | CC(C)C[C@@H]1NC(=O)[C@H](CCC(N)=O)NC(=O)[C@H](CCCCN)NC(=O)[C@H](CCCCN)NC(=O)[C@H](CCCCN)NC(=O)[C@H](Cc2c[nH]c3ccccc23)NC(=O)[C@H](CCCCN)NC(=O)[C@H](CCCCN)NC(=O)[C@H](CC(C)C)NC(=O)[C@H](CC(C)C)NC1=O [BPC166W, c(LLLKKWKKKQ)] (cyclo(KKKQLLLKKW)) | 6.2 to 12.5 | 6.2 to 12.5 | 1 | 1
11 | CC(C)C[C@@H]1NC(=O)[C@H](CCCCN)NC(=O)[C@H](CCC(N)=O)NC(=O)[C@H](CCCCN)NC(=O)[C@H](CCCCN)NC(=O)[C@H](CCCCN)NC(=O)[C@H](Cc2c[nH]c3ccccc23)NC(=O)[C@H](CCCCN)NC(=O)[C@H](CC(C)C)NC(=O)[C@H](CC(C)C)NC1=O [BPC160W, c(KLLLKWKKKQ)] (cyclo(KKKQKLLLKW)) | 6.2 to 12.5 | 6.2 to 12.5 | 3 | 6
12 | CC(C)C[C@@H]1NC(=O)[C@H](CCCCN)NC(=O)[C@H](CCCCN)NC(=O)[C@H](CCCCN)NC(=O)[C@H](CCCCN)NC(=O)[C@H](CCC(N)=O)NC(=O)[C@H](CCCCN)NC(=O)[C@H](CC(C)C)NC(=O)[C@H](CC(C)C)NC(=O)[C@H](Cc2c[nH]c3ccccc23)NC1=O [BPC100W, c(KKKKLWLLKQ)] (cyclo(KKKKLWLLKQ)) | 12.5 to 25 | 6.2 to 12.5 | 19 | 27
13 | CC(C)C[C@@H]1NC(=O)[C@H](CCCCN)NC(=O)[C@H](CCCCN)NC(=O)[C@H](Cc2c[nH]c3ccccc23)NC(=O)[C@H](CCCCN)NC(=O)[C@H](CC(C)C)NC(=O)[C@H](CC(C)C)NC(=O)[C@H](CC(C)C)NC(=O)[C@H](CC(C)C)NC(=O)[C@H](CCC(N)=O)NC1=O [BPC200W, c(LLLLKWKKLQ)] (cyclo(KKLQLLLLKW)) | > 50 | 3.1 to 6.2 | 6 | 7
14 | CC(C)C[C@@H]1NC(=O)[C@H](CCCCN)NC(=O)[C@H](CC(C)C)NC(=O)[C@H](CC(C)C)NC(=O)[C@H](CCC(N)=O)NC(=O)[C@H](CCCCN)NC(=O)[C@H](CCCCN)NC(=O)[C@H](CCCCN)NC(=O)[C@H](Cc2c[nH]c3ccccc23)NC(=O)[C@H](CCCCN)NC1=O [BPC164W, c(LLKLKWKKKQ)] (cyclo(KKKQLLKLKW)) | 6.2 to 12.5 | 6.2 to 12.5 | 6 | 6
15 | CC(C)C[C@@H]1NC(=O)[C@H](Cc2c[nH]c3ccccc23)NC(=O)[C@H](CCCCN)NC(=O)[C@H](CCCCN)NC(=O)[C@H](CCCCN)NC(=O)[C@H](CCCCN)NC(=O)[C@H](CCCCN)NC(=O)[C@H](CCC(N)=O)NC(=O)[C@H](CC(C)C)NC(=O)[C@H](CC(C)C)NC1=O [BPC058W, c(KKKKKWLLLQ)] (cyclo(KKKKKWLLLQ)) | 12.5 to 25 | 25 to 50 | 2 | 3
16 | CC(C)C[C@@H]1NC(=O)[C@H](CCCCN)NC(=O)[C@H](Cc2c[nH]c3ccccc23)NC(=O)[C@H](CCCCN)NC(=O)[C@H](CCCCN)NC(=O)[C@H](CC(C)C)NC(=O)[C@H](CCCCN)NC(=O)[C@H](CC(C)C)NC(=O)[C@H](CCC(N)=O)NC(=O)[C@H](CCCCN)NC1=O [BPC124W, c(LKLKKWKLKQ)] (cyclo(KKWKLKQLKL)) | 6.2 to 12.5 | 3.1 to 6.2 | 2 | 2
17 | CC(C)C[C@@H]1NC(=O)[C@H](CCCCN)NC(=O)[C@H](CCCCN)NC(=O)[C@H](Cc2c[nH]c3ccccc23)NC(=O)[C@H](CCCCN)NC(=O)[C@H](CCCCN)NC(=O)[C@H](CCCCN)NC(=O)[C@H](CCCCN)NC(=O)[C@H](CCCCN)NC(=O)[C@H](CCC(N)=O)NC1=O [BPC202W, c(KKKKKWKKLQ)] (cyclo(KKKKKWKKLQ)) | 25 to 50 | 12.5 to 25 | 0 | 1
